Measured values published in PMC11157491, “Novel Alaninamide Derivatives with Drug-like Potential for Development as Antiseizure and Antinociceptive Therapies—In Vitro and In Vivo Characterization” (ACS Chemical Neuroscience, 2024).

System: glutamate and GABA concentrations in the hippocampus and cortex
Experiment: Glutamate and GABA concentrations in hippocampus and cortex of PTZ-kindled mice (LC-MS/MS)
Format: in vivo
Source text: After completion of behavioral tests, animals were sacrificed and the brains were collected for the analysis of glutamate and GABA concentrations in the hippocampus and cortex. No changes in glutamate and GABA concentrations were reported in the hippocampus (Figure 4A). However, statistically significant differences in the concentration of both glutamate and GABA (Figure 4B) were found in the cortex. The FST procedure increased cortical glutamate concentrations in this brain structure as compared to naive mice (p < 0.05), whereas PTZ-induced kindling caused a ∼30% decrease in glutamate concentrations in comparison to the nonkindled control group exposed to the FST test (p < 0.0001).
Concentrations of GABA and glutamate in the mouse prefrontal cortex and hippocampus were measured by the liquid chromatography-tandem mass spectrometry (LC-MS/MS) method. Standards of both analytes were purchased from Toronto Research Chemicals Inc. (Toronto, ON, Canada). The stock standard solutions of GABA and glutamate were prepared in methanol and deionized water, respectively, and stored at 4 °C. A series of solution mixtures of desired concentrations were prepared by suitable dilutions of the stock solutions. Before analysis, murine brains were homogenized in distilled water at the ratio of 50 μL/mg using a handheld pestle and a glass tube homogenizer (Potter–Elvehjem PTFE pestle and glass tube, Sigma-Aldrich). Homogenates were centrifuged at 8000g for 10 min at 4 °C, and the supernatant was diluted 10 times with 0.1% formic acid in MeCN. After addition of isotope-labeled GABA-d6 and glutamate-d5 (Toronto Research Chemicals Inc., Toronto, ON, Canada) as internal standards (10 μL at a concentration of 500 ng/mL), samples (10 μL) were deproteinized with 80 μL of 0.1% formic acid in MeCN by shaking for 10 min (IKA Vibrax VXR, Germany) and then centrifuged for 5 min at a speed of 8000g (Eppendorf miniSpin centrifuge). The obtained supernatants were transferred into the autosampler vials. Chromatographic separation was carried out on an XBridge HILIC analytical column (2.1 × 150 mm^2, 3.5 μm, Waters, Ireland) with the oven temperature set at 25 °C using the Excion LC AC HPLC system. The autosampler temperature was maintained at 15 °C, and a sample volume of 2 μL was injected into the LC-MS/MS system. […] The tandem mass spectrometer was operated at unit resolution in the selected reaction monitoring mode (SRM), monitoring the transition of the protonated molecular ions m/z 104–87 and m/z 104–69 for GABA and m/z 148–84 and m/z 148–102 for glutamate (the first pair was used as a quantifier and the second for the identity verification—qualifier). For isotope-labeled GABA-d6 and glutamate-d5 monitored pairs were m/z 110–93 and m/z 153–88, respectively. […]

## CC(=O)NC(C)C(=O)N1CCN(c2cccc(OC(F)(F)F)c2)CC1 (centres unmarked) [Compound 28, N-(1-oxo-1-(4-(3-(Trifluoromethoxy)phenyl)piperazin-1-yl)propan-2-yl)acetamide]
PTZ-kindled animals vs PTZ-kindled control
  GABA concentrations in the cortex: did not affect GABA concentrations
cortex, 28 at 40 mg/kg, VPA 150 mg/kg
  cortical glutamate concentration (PTZ-kindling-induced decrease): reversed this effect
